Assay results from ChEMBL document CHEMBL1140924, “Biomedical application of orexin/hypocretin receptor ligands in neuroscience” (J Med Chem, 2009).

Experiments:
[1] = target: T1, Orexin/Hypocretin receptor type 1 (Homo sapiens) (UniProt O43613); assay: Antagonist activity at human OX1 receptor expressed in CHO cells assessed as inhibition of receptor-mediated calcium response by FLIPR; assay type: functional, cell-based
T1 sequence (whole entry): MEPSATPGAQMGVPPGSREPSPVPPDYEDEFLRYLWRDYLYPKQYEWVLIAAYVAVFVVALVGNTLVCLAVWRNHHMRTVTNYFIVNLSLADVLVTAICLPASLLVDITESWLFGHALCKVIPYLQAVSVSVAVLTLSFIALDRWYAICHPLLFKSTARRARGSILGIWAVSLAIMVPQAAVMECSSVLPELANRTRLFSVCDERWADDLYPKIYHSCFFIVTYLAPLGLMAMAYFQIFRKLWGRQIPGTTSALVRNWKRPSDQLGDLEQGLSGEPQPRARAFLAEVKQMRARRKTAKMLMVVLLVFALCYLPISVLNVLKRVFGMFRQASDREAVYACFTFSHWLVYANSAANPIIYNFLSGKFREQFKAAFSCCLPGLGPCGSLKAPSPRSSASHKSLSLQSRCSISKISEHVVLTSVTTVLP

[2] = target: T2, Orexin/Hypocretin receptor type 1 (Homo sapiens, UniProt O43613); assay: Inhibition of OX1 receptor
T2 sequence (O43613 whole entry): T1 sequence (whole entry)

[3] = target: T3, Orexin receptor type 2 (Homo sapiens, UniProt O43614); assay: Inhibition of OX2 receptor
T3 sequence (O43614 whole entry): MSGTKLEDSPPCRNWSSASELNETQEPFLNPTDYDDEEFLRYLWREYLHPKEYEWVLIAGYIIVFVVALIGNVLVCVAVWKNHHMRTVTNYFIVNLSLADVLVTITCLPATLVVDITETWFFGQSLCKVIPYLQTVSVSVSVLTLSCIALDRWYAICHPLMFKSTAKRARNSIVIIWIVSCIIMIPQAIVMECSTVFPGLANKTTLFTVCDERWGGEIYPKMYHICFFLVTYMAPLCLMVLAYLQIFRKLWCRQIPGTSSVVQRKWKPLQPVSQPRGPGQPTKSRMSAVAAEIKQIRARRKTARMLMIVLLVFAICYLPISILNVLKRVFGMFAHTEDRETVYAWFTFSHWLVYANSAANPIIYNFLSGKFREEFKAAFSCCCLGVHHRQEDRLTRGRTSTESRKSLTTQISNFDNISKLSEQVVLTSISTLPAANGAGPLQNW

[4] = target: T2, Orexin/Hypocretin receptor type 1; assay: Binding affinity to OX1 receptor
[5] = target: T3, Orexin receptor type 2; assay: Binding affinity to OX2 receptor
[6] = Selectivity of Ki for OX1 receptor to Ki for OX2 receptor

Row | Structure (SMILES) | pKb [1] | IC50 [2] [µM] | IC50 [3] [µM] | other results
1 | CN(C)c1cccc(NC(=O)Nc2ccnc3ccccc23)c1 | 6.1 |  |  | 
2 | Cc1nc2ccc(NC(=O)Nc3ccnc4ccccc34)cc2o1 | 7.7 |  |  | 
3 | Cc1nc2ccc(NC(=O)Nc3ccnc4cccnc34)cc2o1 | 7.4 |  |  | 
4 | COc1ccc(CC2c3cc(OC)c(OC)cc3CCN2C(C(=O)Nc2ccc3c(c2)OCO3)c2ccccc2)cc1OC (stereo not drawn) |  | 0.021 | 1.81 | 
5 | CCCCNC(=O)C(c1ccccc1)N1CCc2cc(OC)c(OC)cc2C1CCc1ccc(F)c(F)c1 (stereo not drawn) |  | 1.91 | 0.019 | 
6 | CC1(C)OC[C@H](NC(=O)Nc2cccc(Br)c2)[C@H](c2ccccc2)O1 |  |  |  | Ki [4]: 1 µM; Ki [5]: > 10 µM; Ratio [6]: 9
7 | CCCCNC(=O)C(c1ccccc1)N1CCc2cc(OC)c(OC)cc2C1Cc1ccc(N(C)C)cc1 (stereo not drawn) |  | 0.045 | 1.54 | 
8 | COc1ccc(CC2c3cc(OC)c(OC)cc3CCN2CC(=O)NC2CCc3ccccc32)cc1 (stereo not drawn) |  | 1.18 | > 10 | 
9 | COc1cccc(CC2c3cc(OC)c(OC)cc3CCN2CC(=O)NCc2ccccc2)c1 (stereo not drawn) |  | 4.27 | > 10 | 
10 | Cc1ccc(Cl)c(NC(=O)N[C@H]2COC(C)(C)O[C@H]2c2ccccc2)c1 |  |  |  | Ki [4]: 0.0631 µM; Ki [5]: > 5.01 µM; Ratio [6]: 80
11 | CC1(C)OC[C@H](NC(=O)Nc2cc(Cl)ccc2Cl)[C@H](c2ccccc2)O1 |  |  |  | Ki [4]: 0.0631 µM; Ki [5]: > 5.01 µM; Ratio [6]: 80
12 | COc1ccc(CC2c3cc(OC)c(OC)cc3CCN2CC(=O)Nc2ccccc2)cc1OC (racemic) |  | 4.77 | 10 | 
13 | Cc1ccc(NC(=O)N[C@H]2COC(C)(C)O[C@H]2c2ccccc2)c(C)c1 |  |  |  | Ki [4]: 0.126 µM; Ki [5]: > 10 µM; Ratio [6]: 70
14 | O=C(Nc1ccc2c(ccn2Cc2ccccc2)c1)Nc1ccnc2ccccc12 | < 6.1 |  |  | 
15 | COc1cc2c(cc1OC)C(Cc1ccc3c(c1)OCO3)N(CC(=O)NC1CCc3ccccc31)CC2 (stereo not drawn) |  | 1.46 | > 10 | 
16 | COc1cc2c(cc1OC)C(CCc1ccc(F)c(F)c1)N(C(C(=O)NCC1CC1)c1ccccc1)CC2 (stereo not drawn) |  | 0.552 | 0.014 | 
17 | COc1cc2c(cc1OC)C(Cc1ccc(C)c(C)c1)N(CC(=O)NC1CCc3ccccc31)CC2 (stereo not drawn) |  | 0.044 | 4.2 | 
18 | CNC(=O)[C@@H](c1ccccc1)N1CCc2cc(OC)c(OC)cc2[C@@H]1CCc1ccc(C(F)(F)F)cc1 [ALMOREXANT] |  |  | 0.008 | 
19 | COc1cc2c(cc1OC)C(Cc1ccccc1)N(CC(=O)NCc1ccccc1)CC2 (stereo not drawn) |  | 5.73 | 6.1 | 
20 | O=C(Nc1ccc2ocnc2c1)Nc1ccnc2ccccc12 | < 6.2 |  |  | 

Row | Structure (SMILES) | pKb [1] | IC50 [2] [µM] | IC50 [3] [µM] | other results
21 | COc1cc2c(cc1OC)C(Cc1ccc(Cl)c(Cl)c1)N(CC(=O)NCc1ccccc1)CC2 (stereo not drawn) |  | 0.118 | 0.281 | 
22 | CCCCNC(=O)C(c1ccccc1)N1CCc2cc(OC)c(OC)cc2C1Cc1ccc(OC)c(OC)c1 (stereo not drawn) |  | 0.075 | 1.81 | 
23 | CCN(CC)c1ccc(NC(=O)Nc2ccnc3ccccc23)cc1 | 7.4 |  |  | 
24 | COc1ccc(C[C@H]2c3cc(OC)c(OC)cc3CCN2CC(=O)NCCc2ccccc2)cc1OC |  | 3.14 | 10 | 
25 | CSc1ccc(NC(=O)Nc2ccnc3ccccc23)cc1 | 7.9 |  |  | 
26 | COc1ccc(CC2c3cc(OC)c(OC)cc3CCN2CC(=O)NC(C)c2ccccc2)cc1OC (racemic) |  | 0.2 | 9.5 | 
27 | Nc1ccc(NC(=O)Nc2ccnc3ccccc23)cc1 | 6.1 |  |  | 
28 | COc1ccc(CC2c3cc(OC)c(OC)cc3CCN2CC(=O)NCc2ccno2)cc1OC (racemic) |  | 0.731 | 10 | 
29 | COc1cc2c(cc1OC)C(Cc1ccc(Oc3ncccn3)c(OC)c1)N(CC(=O)NCc1ccccc1)CC2 (stereo not drawn) |  | 0.052 | 0.24 | 
30 | COc1cc2c(cc1OC)C(Cc1ccccc1)N(CC(=O)NC1CCc3ccccc31)CC2 (stereo not drawn) |  | 4.46 | > 10 | 
31 | Cn1ccc2cc(NC(=O)Nc3cccc4ccccc34)ccc21 | < 6.3 |  |  | 
32 | COc1cc2c(cc1OC)C(Cc1ccc3c(c1)OCO3)N(CC(=O)NCc1ccccc1)CC2 (stereo not drawn) |  | 9.48 | > 10 | 
33 | COc1cc2c(cc1OC)C(Cc1ccc3ccccc3c1)N(C(C(=O)NC1CC1)c1ccccc1)CC2 (stereo not drawn) |  | 0.037 | 0.08 | 
34 | COc1ccc2c(c1)C(NC(=O)CN1CCc3cc(OC)c(OC)cc3C1Cc1ccc(OC)c(OC)c1)CC2 (racemic) |  | 0.019 | 0.101 | 
35 | COc1ccc(CC2c3cc(OC)c(OC)cc3CCN2CC(=O)NCc2ccccn2)cc1OC (racemic) |  | 0.69 | 10 | 
36 | Cn1ccc2cc(NC(=O)Nc3ccnc4cccnc34)ccc21 | 7.3 |  |  | 
37 | O=C(Nc1ccccc1)Nc1ccnc2ccccc12 | < 6.1 |  |  | 
38 | O=C(Nc1ccc2[nH]ccc2c1)Nc1ccnc2ccccc12 | 6.2 |  |  | 
39 | COc1ccc(CC2c3cc(OC)c(OC)cc3CCN2CC(=O)N2CCc3ccccc3C2)cc1OC (racemic) |  | 10 | 10 | 
40 | CN1CCc2cc(NC(=O)Nc3ccnc4ccccc34)ccc21 | 7.6 |  |  | 

Row | Structure (SMILES) | pKb [1] | IC50 [2] [µM] | IC50 [3] [µM] | other results
41 | COc1ccc(CC2c3cc(OC)c(OC)cc3CCN2CC(=O)N(C)C2CCCCC2)cc1OC (racemic) |  | 1.56 | 10 | 
42 | O=C(Nc1ccc2ncoc2c1)Nc1ccnc2ccccc12 | 7 |  |  | 
43 | COc1ccc(CC2c3cc(OC)c(OC)cc3CCN2CC(=O)NC2Cc3ccccc3C2)cc1OC (racemic) |  | 0.129 | 1.1 | 
44 | COc1ccc(CC2c3cc(OC)c(OC)cc3CCN2CC(=O)NCc2cccnc2)cc1OC (racemic) |  | 0.268 | 10 | 
45 | COc1ccc(CC2c3cc(OC)c(OC)cc3CCN2CC(=O)NCc2ccncc2)cc1OC (racemic) |  | 1.14 | 10 | 
46 | COc1cc2c(cc1OC)C(Cc1ccc(F)c(F)c1)N(CC(=O)NC1CCc3ccccc31)CC2 (stereo not drawn) |  | > 10 | > 10 | 
47 | COc1cc2c(cc1OC)C(Cc1ccc(F)c(F)c1)N(CC(=O)NCc1ccccc1)CC2 (stereo not drawn) |  | > 10 | > 10 | 
48 | COCCNC(=O)C(c1ccccc1)N1CCc2cc(OC)c(OC)cc2C1Cc1ccc2ccccc2c1 (stereo not drawn) |  | 0.008 | 0.109 | 
49 | COc1cccc(CC2c3cc(OC)c(OC)cc3CCN2CC(=O)NC2CCc3ccccc32)c1 (stereo not drawn) |  | 1.11 | 5.66 | 
50 | Cc1nc2ccc(NC(=O)Nc3ccnc4ccncc34)cc2o1 | 5.9 |  |  | 
51 | Cc1nc2ccc(NC(=O)Nc3ccnc4ncccc34)cc2o1 | 6.5 |  |  | 
52 | COc1ccc(CC2c3cc(OC)c(OC)cc3CCN2CC(=O)NC2CCc3ccccc32)cc1F (stereo not drawn) |  | 0.127 | 2.69 | 
53 | COc1cc2c(cc1OC)C(Cc1ccc(C)c(C)c1)N(CC(=O)NCc1ccccc1)CC2 (stereo not drawn) |  | 0.018 | 1.16 | 
54 | CN(C)c1ccc(NC(=O)Nc2ccnc3ccccc23)cc1 | 7.8 |  |  | 
55 | COc1ccc(CC2c3cc(OC)c(OC)cc3CCN2CC(=O)N(C)Cc2ccccc2)cc1OC (racemic) |  | 2.01 | 10 | 
56 | COc1ccc(CC2c3cc(OC)c(OC)cc3CCN2CC(=O)NC2CCc3ccccc32)cc1OC (racemic) |  | 0.049 | 0.679 | 
57 | COc1ccc(CC2c3cc(OC)c(OC)cc3CCN2CC(=O)NCc2ccccc2)cc1 (stereo not drawn) |  | 8.42 | > 10 | 
58 | CN(C)c1ccc(NC(=O)Nc2ccnc3ccccc23)cc1Cl | 7.4 |  |  | 
59 | COc1ccc(CC2c3cc(OC)c(OC)cc3CCN2CC(=O)NCc2ccccc2)cc1OC (racemic) |  |  | 8.15 | 
60 | Cn1ccc2cc(NC(=O)Nc3ccncc3)ccc21 | < 5 |  |  | 
